Experimental data: BindingDB's records for doi:10.1021/acsmedchemlett.6b00315 (Ghent University, 2017)

How the values were obtained:
[1] = Inhibition of methicillin-resistant Staphylococcus aureus Mu50 TRAP assessed as potentiation of vancomycin-induced antibiofilm activity cotreated with vancomycin for 24 hrs
[2] = Inhibition of methicillin-resistant Staphylococcus aureus Mu50 TRAP assessed as potentiation of vancomycin-induced antibiofilm activity treated for 4 hrs prior to vancomycin addition measured after 20 hrs
[3] = Inhibition of methicillin-resistant Staphylococcus aureus Mu50 TRAP assessed as potentiation of vancomycin-induced antibiofilm activity cotreated with vancomycin for 24 hrs; remark: listed apart in the source

O=C(NC[C@]1(O)CO[C@H](CNC(=O)c2ccccc2Cl)[C@H]1O)c1ccccc1F
EC50 [1]: 62.2 µM
EC50 [2]: 48.6 µM

O=C(NC[C@H]1OC[C@H](O)[C@@H]1O)c1ccccc1Cl
EC50 [1]: 4.99 µM
EC50 [2]: 11.4 µM

O=C(NC[C@]1(O)CO[C@H](CNC(=O)c2ccncc2Cl)[C@H]1O)c1ccccc1
EC50 [1]: 232 µM
EC50 [2]: > 250 µM

Cn1cncc1C(=O)NC[C@H]1OC[C@@](O)(CNC(=O)c2ccccc2)[C@@H]1O
EC50 [3]: 58.2 µM
EC50 [2]: 46.7 µM

O=C(NC[C@H]1OC[C@@](O)(CNC(=O)c2ccc(-c3ccccc3)cc2)[C@@H]1O)c1ccnnc1
EC50 [1]: 45.4 µM
EC50 [2]: 8.54 µM

O=C(NC[C@H]1OC[C@@](O)(CNC(=O)C2CCCCC2)[C@@H]1O)c1ccccc1Cl
EC50 [3]: 34 µM
EC50 [2]: 9.56 µM

O=C(NC[C@H]1OC[C@@](O)(CN2Cc3ccccc3C2=O)[C@@H]1O)c1ccccc1Cl
EC50 [3]: 20.9 µM
EC50 [2]: 13.7 µM

O=C(NC[C@]1(O)CO[C@H](CNC(=O)c2cccnc2Cl)[C@H]1O)c1ccccc1
EC50 [1]: > 250 µM
EC50 [2]: > 250 µM

O=C(NC[C@H]1OC[C@@](O)(CNC(=O)c2ccccc2Cl)[C@@H]1O)c1ccccc1
EC50 [1]: 15 µM
EC50 [2]: 5.58 µM

O=C(NC[C@H]1OC[C@@](O)(CN2C(=O)c3ccccc3C2=O)[C@@H]1O)c1ccc(-c2ccccc2)cc1
EC50 [3]: 12.1 µM
EC50 [2]: 24.7 µM

O=C(NC[C@]1(O)CO[C@H](CNC(=O)c2ccccc2Cl)[C@H]1O)c1ccccc1
EC50 [1]: 7.98 µM
EC50 [2]: 0.39 µM

Cc1ccc(C(=O)NC[C@]2(O)CO[C@H](CNC(=O)c3ccccc3Cl)[C@H]2O)cc1
EC50 [3]: 41.9 µM
EC50 [2]: 79.7 µM

O=C(NC[C@]1(O)CO[C@H](CNC(=O)c2ccccc2Cl)[C@H]1O)c1ccoc1
EC50 [3]: 76.7 µM
EC50 [2]: 68.5 µM

CC(=O)NC[C@]1(O)CO[C@H](CNC(=O)c2ccccc2Cl)[C@H]1O
EC50 [3]: 3.55 µM
EC50 [2]: 15.4 µM

O=C(NC[C@H]1OC[C@@](O)(CNCc2ccccc2)[C@@H]1O)c1ccccc1Cl
EC50 [3]: 8.42 µM
EC50 [2]: 6.32 µM

[N-]=[N+]=NC[C@]1(O)CO[C@H](CNC(=O)c2ccccc2Cl)[C@H]1O
EC50 [3]: 2.34 µM
EC50 [2]: 15.1 µM

O=C(NC[C@]1(O)CO[C@H](CNC(=O)c2cnccc2Cl)[C@H]1O)c1ccccc1
EC50 [1]: > 250 µM
EC50 [2]: 200 µM

Cn1nccc1C(=O)NC[C@H]1OC[C@@](O)(CNC(=O)c2ccccc2)[C@@H]1O
EC50 [3]: 23.5 µM
EC50 [2]: 29.3 µM

O=C(NC[C@]1(O)CO[C@H](CN2C(=O)c3ccccc3C2=O)[C@H]1O)c1ccccc1Cl
EC50 [1]: 1.27 µM
EC50 [2]: 0.26 µM

O=C(NC[C@]1(O)CO[C@H](CN2C(=O)c3ccccc3C2=O)[C@H]1O)c1ccnnc1
EC50 [1]: 11.4 µM
EC50 [2]: 5.85 µM

O=C(NC[C@H]1OC[C@@](O)(CN2C(=O)c3ccccc3C2=O)[C@@H]1O)c1ccccc1Cl
EC50 [3]: 39 µM
EC50 [2]: 2.63 µM

O=C(OC[C@H]1OC(O)[C@@](O)(COC(=O)c2cc(O)c(O)c(O)c2)[C@@H]1O)c1cc(O)c(O)c(O)c1 (some centres undefined) [Hamamelitannin]
EC50 [3]: 165 µM
EC50 [2]: 146 µM
